In PMC5791972 (PLoS ONE, 2018):
Where “and” joins values, the source holds several entries; their conditions need not be identical. Equal entries are not always repeated. No end group written: not given here.

What was measured:
CaMK2α (h) = CaMK2α (h) (Homo sapiens, UniProt Q9UQM7); experiment: enzyme assay; format: biochemical
[1] = biological target: T1, choline transporter (CHT1) (h) (Homo sapiens, UniProt Q9GZV3); format: binding
T1 construct: host or cells: CHO cells
T1 sequence (Q9GZV3 1-580): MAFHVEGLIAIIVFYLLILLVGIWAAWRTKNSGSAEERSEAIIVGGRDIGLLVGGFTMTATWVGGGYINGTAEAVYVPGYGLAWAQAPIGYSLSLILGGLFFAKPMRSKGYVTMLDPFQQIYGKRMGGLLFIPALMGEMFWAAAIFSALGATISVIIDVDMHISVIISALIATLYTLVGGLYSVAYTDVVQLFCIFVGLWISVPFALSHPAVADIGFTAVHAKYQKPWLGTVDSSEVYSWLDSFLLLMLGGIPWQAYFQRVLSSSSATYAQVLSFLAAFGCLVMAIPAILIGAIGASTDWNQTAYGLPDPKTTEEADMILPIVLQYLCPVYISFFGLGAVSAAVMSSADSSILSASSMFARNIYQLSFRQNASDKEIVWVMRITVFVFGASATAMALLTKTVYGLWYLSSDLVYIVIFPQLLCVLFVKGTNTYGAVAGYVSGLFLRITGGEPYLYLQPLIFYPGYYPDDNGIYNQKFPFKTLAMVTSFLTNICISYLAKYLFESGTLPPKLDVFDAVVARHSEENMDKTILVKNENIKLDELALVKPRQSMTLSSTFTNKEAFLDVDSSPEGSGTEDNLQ

[2] = biological target: T2, phosphatase 1B (h) (PTP1B) (Homo sapiens, UniProt P18031); experiment: enzyme assay; format: biochemical
T2 construct: host or cells: E. coli
T2 sequence (P18031 1-435): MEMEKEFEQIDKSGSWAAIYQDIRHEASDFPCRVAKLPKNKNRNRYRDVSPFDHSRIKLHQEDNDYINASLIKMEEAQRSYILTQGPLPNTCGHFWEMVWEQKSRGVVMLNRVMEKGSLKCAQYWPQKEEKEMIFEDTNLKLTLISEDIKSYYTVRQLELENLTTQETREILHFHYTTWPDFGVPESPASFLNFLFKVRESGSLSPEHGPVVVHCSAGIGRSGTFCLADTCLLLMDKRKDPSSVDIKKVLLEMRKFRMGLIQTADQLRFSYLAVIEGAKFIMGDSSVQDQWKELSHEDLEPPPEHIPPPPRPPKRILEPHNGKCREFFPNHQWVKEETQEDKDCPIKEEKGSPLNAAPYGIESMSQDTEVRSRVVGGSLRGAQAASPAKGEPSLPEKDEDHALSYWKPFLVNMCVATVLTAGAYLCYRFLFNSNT

A3 (h) = biological target: T3, A3 (h) (Homo sapiens, UniProt P0DMS8); format: binding
T3 construct: host or cells: HEK-293 cells
T3 sequence (P0DMS8 1-318): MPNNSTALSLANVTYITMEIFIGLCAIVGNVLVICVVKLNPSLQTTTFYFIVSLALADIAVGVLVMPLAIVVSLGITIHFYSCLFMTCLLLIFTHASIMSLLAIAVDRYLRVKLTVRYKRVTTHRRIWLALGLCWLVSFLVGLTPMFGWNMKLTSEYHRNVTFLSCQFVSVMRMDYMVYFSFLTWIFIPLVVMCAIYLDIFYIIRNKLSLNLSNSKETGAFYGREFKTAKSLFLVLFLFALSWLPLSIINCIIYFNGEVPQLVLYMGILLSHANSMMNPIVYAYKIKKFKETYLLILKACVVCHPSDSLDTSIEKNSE

rolipram = format: binding, mouse
α2C (h) = biological target: T4, α2C (h) (Homo sapiens, UniProt P18825); format: binding
T4 construct: host or cells: CHO cells
T4 sequence (P18825 1-462): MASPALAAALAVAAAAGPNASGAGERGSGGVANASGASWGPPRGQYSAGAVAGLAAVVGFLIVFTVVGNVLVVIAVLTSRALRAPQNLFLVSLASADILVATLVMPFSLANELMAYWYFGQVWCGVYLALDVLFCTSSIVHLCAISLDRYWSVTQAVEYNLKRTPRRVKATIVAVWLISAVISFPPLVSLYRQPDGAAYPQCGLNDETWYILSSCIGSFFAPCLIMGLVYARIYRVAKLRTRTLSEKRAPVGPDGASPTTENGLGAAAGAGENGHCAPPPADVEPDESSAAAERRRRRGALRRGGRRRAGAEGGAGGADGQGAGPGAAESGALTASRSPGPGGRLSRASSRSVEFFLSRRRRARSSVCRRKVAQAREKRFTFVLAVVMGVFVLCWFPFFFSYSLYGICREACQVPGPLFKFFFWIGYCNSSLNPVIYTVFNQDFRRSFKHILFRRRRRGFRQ

AR (h) = biological target: T5, AR (h) (Homo sapiens, UniProt P10275, T878A); format: binding
T5 construct: AR (h) LNCaP cells [3H]methyltrienolone; host or cells: LNCaP cells (cytosol)
T5 sequence (P10275 1-920 T878A): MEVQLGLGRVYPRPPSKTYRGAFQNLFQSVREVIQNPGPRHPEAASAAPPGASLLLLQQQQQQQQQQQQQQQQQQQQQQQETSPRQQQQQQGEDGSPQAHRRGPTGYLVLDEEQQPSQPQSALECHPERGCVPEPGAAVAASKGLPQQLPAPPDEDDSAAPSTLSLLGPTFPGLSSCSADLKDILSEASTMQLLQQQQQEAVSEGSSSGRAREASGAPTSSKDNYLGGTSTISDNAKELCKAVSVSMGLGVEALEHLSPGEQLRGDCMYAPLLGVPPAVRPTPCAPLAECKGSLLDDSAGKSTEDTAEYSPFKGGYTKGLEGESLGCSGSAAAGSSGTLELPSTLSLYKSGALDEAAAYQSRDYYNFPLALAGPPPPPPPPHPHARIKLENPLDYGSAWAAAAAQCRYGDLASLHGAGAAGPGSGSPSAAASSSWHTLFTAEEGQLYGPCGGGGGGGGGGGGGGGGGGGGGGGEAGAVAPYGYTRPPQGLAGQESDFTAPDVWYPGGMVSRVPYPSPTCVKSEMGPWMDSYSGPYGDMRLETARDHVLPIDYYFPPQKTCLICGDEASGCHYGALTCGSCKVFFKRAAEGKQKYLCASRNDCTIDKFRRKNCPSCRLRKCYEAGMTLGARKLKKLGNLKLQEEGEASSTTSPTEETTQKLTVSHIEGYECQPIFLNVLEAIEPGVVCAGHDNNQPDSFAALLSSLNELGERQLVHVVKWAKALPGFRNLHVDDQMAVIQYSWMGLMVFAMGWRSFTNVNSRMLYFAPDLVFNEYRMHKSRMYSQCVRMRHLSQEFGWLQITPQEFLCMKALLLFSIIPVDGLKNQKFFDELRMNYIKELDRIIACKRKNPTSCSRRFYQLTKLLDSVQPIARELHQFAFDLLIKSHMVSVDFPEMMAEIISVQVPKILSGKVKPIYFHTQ

β1 (h) = biological target: T6, β1 (h) (Homo sapiens, UniProt P08588); format: binding
T6 construct: host or cells: HEK-293 cells

tyrosine hydroxylase = biological target: T7, tyrosine hydroxylase (Rattus norvegicus, UniProt P04177); experiment: enzyme assay; format: biochemical
T7 construct: rat striatum; from tissue; host or cells: rat striatum

GABA transaminase = biological target: T8, GABA transaminase (Rattus norvegicus, UniProt P50554); experiment: enzyme assay; format: biochemical
T8 construct: rat brain; from tissue; host or cells: rat brain

PDE6 (non-selective) = biological target: T9, PDE6 (non-selective) (Bos taurus, UniProt P11541+P23439); experiment: enzyme assay; format: biochemical, bovine
T9 construct: PDE6 bovine [3H]cGMP; tissue Cerep (contract assay); host or cells: bovine retina
T9 sequence (P11541 2-856 limits assumed): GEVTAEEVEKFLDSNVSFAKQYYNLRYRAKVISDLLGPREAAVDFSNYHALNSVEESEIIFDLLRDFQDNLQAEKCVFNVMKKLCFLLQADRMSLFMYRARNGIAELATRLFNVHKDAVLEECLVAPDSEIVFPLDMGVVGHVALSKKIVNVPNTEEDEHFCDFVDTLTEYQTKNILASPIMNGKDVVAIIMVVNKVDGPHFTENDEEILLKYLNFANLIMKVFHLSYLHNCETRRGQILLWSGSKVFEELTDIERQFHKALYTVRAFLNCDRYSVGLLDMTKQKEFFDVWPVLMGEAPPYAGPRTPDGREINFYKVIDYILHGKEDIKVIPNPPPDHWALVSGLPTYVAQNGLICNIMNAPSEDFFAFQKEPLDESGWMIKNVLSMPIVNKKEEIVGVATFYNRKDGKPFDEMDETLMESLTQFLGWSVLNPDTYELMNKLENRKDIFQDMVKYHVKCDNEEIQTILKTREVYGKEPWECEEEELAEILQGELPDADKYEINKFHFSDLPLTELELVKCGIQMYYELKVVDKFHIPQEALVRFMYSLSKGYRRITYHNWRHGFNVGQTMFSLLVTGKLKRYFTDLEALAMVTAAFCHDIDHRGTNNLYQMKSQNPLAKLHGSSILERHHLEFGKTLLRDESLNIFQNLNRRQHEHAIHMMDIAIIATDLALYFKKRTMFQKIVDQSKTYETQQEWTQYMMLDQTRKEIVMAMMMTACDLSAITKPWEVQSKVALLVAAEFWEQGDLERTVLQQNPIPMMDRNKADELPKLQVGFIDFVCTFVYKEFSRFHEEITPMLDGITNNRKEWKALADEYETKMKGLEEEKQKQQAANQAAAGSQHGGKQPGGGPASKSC
T9 sequence (P23439 2-850 limits assumed): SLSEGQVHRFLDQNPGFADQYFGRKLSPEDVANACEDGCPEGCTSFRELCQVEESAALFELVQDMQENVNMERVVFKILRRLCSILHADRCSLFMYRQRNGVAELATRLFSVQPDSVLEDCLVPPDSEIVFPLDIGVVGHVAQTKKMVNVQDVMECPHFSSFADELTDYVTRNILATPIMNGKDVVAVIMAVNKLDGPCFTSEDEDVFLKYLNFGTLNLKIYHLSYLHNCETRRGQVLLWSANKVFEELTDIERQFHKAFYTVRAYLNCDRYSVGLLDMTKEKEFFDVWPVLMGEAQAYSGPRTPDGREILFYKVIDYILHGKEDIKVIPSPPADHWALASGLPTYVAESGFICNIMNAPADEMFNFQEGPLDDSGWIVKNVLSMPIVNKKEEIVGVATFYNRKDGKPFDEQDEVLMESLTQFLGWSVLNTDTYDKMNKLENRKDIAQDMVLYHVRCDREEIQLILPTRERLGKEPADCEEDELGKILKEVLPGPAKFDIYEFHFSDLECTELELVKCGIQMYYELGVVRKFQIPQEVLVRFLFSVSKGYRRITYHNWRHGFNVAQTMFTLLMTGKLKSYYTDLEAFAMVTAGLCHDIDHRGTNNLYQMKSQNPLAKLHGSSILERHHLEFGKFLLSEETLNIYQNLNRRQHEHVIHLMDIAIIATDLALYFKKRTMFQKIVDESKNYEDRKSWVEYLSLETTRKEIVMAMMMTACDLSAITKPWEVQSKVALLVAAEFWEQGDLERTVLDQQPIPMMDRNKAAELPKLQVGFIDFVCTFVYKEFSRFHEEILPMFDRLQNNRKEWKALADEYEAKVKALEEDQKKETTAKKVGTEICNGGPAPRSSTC

α2A (h) = biological target: T10, α2A (h) (Homo sapiens, UniProt P08913); format: binding
T10 construct: host or cells: CHO cells
T10 sequence (P08913 1-465): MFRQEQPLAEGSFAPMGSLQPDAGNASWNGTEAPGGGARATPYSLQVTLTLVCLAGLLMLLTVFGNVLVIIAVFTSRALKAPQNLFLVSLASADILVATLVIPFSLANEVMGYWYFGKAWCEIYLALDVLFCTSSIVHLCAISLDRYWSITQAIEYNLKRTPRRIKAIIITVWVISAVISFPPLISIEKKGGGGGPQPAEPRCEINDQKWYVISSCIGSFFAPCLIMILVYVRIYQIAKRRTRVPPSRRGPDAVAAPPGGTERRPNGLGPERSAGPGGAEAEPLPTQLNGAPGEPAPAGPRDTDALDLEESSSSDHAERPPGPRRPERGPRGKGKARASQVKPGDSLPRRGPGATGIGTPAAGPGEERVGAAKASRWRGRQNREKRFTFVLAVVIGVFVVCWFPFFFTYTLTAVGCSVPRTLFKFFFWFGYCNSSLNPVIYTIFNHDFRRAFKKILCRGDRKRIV

T8 sequence (P50554 28-500): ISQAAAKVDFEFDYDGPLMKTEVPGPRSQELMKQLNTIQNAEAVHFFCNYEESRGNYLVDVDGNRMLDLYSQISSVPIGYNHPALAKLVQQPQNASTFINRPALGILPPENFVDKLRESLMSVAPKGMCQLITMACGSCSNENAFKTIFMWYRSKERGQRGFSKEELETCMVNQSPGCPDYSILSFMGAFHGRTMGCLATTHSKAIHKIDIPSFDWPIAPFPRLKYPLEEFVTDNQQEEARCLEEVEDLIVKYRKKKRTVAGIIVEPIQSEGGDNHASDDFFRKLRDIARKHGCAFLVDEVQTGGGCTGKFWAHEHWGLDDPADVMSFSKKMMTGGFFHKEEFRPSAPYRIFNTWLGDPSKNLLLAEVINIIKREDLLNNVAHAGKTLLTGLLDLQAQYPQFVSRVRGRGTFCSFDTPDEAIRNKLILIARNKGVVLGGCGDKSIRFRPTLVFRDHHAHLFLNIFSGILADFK
T7 sequence (P04177 whole entry): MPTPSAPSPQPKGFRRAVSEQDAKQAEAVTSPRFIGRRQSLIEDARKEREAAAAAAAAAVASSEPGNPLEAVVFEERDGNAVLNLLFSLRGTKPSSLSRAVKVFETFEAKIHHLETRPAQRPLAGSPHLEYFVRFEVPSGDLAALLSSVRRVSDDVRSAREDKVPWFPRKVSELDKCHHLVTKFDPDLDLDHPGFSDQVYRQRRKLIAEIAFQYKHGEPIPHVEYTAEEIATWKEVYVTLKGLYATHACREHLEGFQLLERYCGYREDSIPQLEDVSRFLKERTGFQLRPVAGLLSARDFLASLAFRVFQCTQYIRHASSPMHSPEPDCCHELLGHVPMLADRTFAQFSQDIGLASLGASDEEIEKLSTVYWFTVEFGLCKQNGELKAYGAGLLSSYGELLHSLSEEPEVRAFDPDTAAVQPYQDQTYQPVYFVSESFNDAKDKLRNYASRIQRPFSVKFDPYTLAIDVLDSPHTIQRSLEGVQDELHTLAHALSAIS
T6 sequence (P08588 whole entry): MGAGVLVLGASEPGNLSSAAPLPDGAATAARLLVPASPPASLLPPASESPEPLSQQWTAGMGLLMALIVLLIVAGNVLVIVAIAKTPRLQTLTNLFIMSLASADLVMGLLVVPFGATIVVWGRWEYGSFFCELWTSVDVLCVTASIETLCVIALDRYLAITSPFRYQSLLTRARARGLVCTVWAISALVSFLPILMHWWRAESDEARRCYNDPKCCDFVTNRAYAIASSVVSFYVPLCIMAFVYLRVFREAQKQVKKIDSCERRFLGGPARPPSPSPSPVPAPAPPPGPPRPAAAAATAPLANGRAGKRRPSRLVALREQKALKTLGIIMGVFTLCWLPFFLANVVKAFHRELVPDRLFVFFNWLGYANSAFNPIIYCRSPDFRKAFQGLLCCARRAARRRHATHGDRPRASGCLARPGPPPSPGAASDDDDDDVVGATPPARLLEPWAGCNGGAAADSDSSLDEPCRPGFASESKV

Question: For KKALRRQEAVDAL [AIP, reference compound], which IC50 (CaMK2α (h)) is on record?
Answer: 81 nM

Question: And the nH (CaMK2α (h))?
Answer: 1.0

Question: Which Ki [1] does the source give for `C[N+]1(C)CCOC(O)(c2ccc(-c3ccc(C4(O)C[N+](C)(C)CCO4)cc3)cc2)C1` (stereo not shown) [hemicholinium-3, reference compound] here?
Answer: 3.6 nM

Question: What about the nH [1] of the same compound?
Answer: 0.7

Question: With ammonium molybdate [reference compound] as the compound, how does the IC50 [2] read?
Answer: 540 nM

Question: And the nH [2]?
Answer: 2.9

Question: How did the nH (A3 (h)) turn out when `CNC(=O)[C@H]1O[C@@H](n2cnc3c(NCc4cccc(I)c4)ncnc32)[C@H](O)[C@@H]1O` [IB-MECA, reference compound] was run?
Answer: 0.8

Question: Which results are given for `COc1ccc(C2CNC(=O)C2)cc1OC1CCCC1` (stereo not shown) [rolipram, reference compound]?
Answer: IC50 (rolipram): 0.71 nM; Ki (rolipram): 0.36 nM

Question: Which nH (α2C (h)) does the source give for `CNC[C@H](O)c1ccc(O)c(O)c1` [epinephrine, reference compound] here?
Answer: 1.1

Question: `C[C@@H]1CC2=CC(=O)CC[C@@H]2[C@H]2CC[C@@]3(C)[C@@H](CC[C@]3(C)O)[C@@H]21` [mibolerone, reference compound] was tested. Which nH (AR (h)) did it give?
Answer: 1.1 and 1.0

Question: `CC(C)NCC(O)COc1ccc(CC(N)=O)cc1` (stereo not shown) [atenolol, reference compound] was tested. Which nH (β1 (h)) did it give?
Answer: 1.0

Question: With `N[C@@H](Cc1ccc(O)c(I)c1)C(=O)O` [3-iodo L-tyrosine, reference compound] as the compound, how does the IC50 (tyrosine hydroxylase) read?
Answer: 610 nM

Question: And the nH (tyrosine hydroxylase)?
Answer: 1.0

Question: For `NOCC(=O)O` [AoAA, reference compound], which IC50 (GABA transaminase) is on record?
Answer: 130 nM

Question: And the nH (GABA transaminase)?
Answer: 1.7

Question: For `CCCOc1ccccc1-c1nc2nn[nH]c2c(=O)[nH]1` [zaprinast, reference compound], which IC50 (PDE6 (non-selective)) is on record?
Answer: 170 nM

Question: And the nH (PDE6 (non-selective))?
Answer: 0.7

Question: `COC(=O)[C@@H]1[C@H]2C[C@H]3c4[nH]c5ccccc5c4CCN3C[C@@H]2CC[C@@H]1O` [yohimbine, reference compound] was tested. Which nH (α2A (h)) did it give?
Answer: 1.1
